{"source": "patent US7825135B2", "about": "“Heteroaryl piperidine glycine transporter inhibitors” (Merck Sharp & Dohme Limited, priority 2004, dated 2010)", "origin": "cited, not measured here", "key": {"[1]": {"conditions": "high doses, oral, add-on to standard neuroleptic therapy"}, "[2]": {"conditions": "mice"}, "[3]": {"system": "NMDA receptor", "conditions": "rat; blockade of GlyT1"}, "[4]": {"conditions": "schizophrenia patients poorly responsive to antipsychotic drugs"}}, "data": [{"smiles": "NCC(=O)O", "note": "[glycine]", "values": [{"measurement": "effect on symptoms of schizophrenia patients", "setting": "[1]", "result": "improvement of the symptoms"}]}, {"smiles": "CN(CCC(Oc1ccc(-c2ccccc2)cc1)c1ccc(F)cc1)CC(=O)O", "note": "(stereo not shown) [NFPS]", "values": [{"measurement": "effect on pre-pulse inhibition (sensory gating)", "setting": "[2]", "result": "enhance pre-pulse inhibition"}, {"measurement": "effect on NMDA receptor activity and NMDA receptor-dependent long-term potentiation", "setting": "[3]", "result": "potentiates NMDA receptor activity and NMDA receptor-dependent long-term potentiation"}]}, {"smiles": "CNCC(=O)O", "note": "[sarcosine]", "values": [{"measurement": "effect on positive, negative and cognitive symptoms", "setting": "[4]", "result": "beneficial effect"}]}]}
